Reference: paper PMC10004634 (PLOS ONE, 2023)
Read-outs that look alike come from different tables or passages of the source.

Tests used:
Assay in all cases: biochemical
Parameters in all cases: KINOMEscan scanMAX competition binding, DNA-tagged kinases, qPCR read-out, percent control at 300 nM
HUNK = target: T1, HUNK (Homo sapiens, UniProt P57058)
T1 sequence (P57058 1-714): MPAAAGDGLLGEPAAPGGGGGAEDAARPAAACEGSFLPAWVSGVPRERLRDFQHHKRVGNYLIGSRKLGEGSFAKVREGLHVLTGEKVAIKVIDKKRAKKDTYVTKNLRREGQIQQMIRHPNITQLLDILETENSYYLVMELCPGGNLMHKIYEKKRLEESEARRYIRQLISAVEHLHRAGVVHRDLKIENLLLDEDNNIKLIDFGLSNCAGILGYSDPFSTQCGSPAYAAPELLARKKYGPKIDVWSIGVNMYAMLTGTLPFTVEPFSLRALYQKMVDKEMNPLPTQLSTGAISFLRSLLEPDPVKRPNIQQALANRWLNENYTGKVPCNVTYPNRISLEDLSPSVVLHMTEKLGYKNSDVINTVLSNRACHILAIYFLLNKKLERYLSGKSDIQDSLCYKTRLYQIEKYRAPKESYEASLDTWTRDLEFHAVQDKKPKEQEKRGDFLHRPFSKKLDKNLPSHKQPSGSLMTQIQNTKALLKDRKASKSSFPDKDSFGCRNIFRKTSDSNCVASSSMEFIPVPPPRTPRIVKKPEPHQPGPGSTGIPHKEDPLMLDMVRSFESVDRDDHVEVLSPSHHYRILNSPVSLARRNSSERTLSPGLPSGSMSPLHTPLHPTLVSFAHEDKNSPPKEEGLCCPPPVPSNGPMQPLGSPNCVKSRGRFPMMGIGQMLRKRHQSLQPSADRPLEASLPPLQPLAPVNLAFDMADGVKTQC

DCAMKL3 = target: T2, DCAMKL3 (Homo sapiens, UniProt Q9C098)
T2 construct: gene DCLK3

MAK = MAK (Homo sapiens, UniProt P20794)
TESK1 = TESK1 (Homo sapiens, UniProt Q15569)
CDKL1 = CDKL1 (Homo sapiens, UniProt Q00532)
ERK8 = target: T3, ERK8 (Homo sapiens, UniProt Q8TD08)
T3 construct: gene MAPK15

MYLK = MYLK (Homo sapiens, UniProt Q15746)
CIT = CIT (Homo sapiens, UniProt O14578)
CSNK1G1 = CSNK1G1 (Homo sapiens, UniProt Q9HCP0)
[1] = target: T4, TYK2(JH2domain-pseudokinase) (Homo sapiens, UniProt P29597)
T4 construct: JH2domain-pseudokinase

JNK2 = target: T5, JNK2 (Homo sapiens, UniProt P45984)
T5 construct: gene MAPK9

MAPKAPK2 = MAPKAPK2 (Homo sapiens, UniProt P49137)
[2] = target: T6, RSK3(Kin.Dom.2-C-terminal) (Homo sapiens, UniProt Q15349)
T6 construct: gene RPS6KA2; Kin.Dom.2-C-terminal

SNRK = SNRK (Homo sapiens, UniProt Q9NRH2)
PRKCE = PRKCE (Homo sapiens, UniProt Q02156)
PKAC-beta = target: T7, PKAC-beta (Homo sapiens, UniProt P22694)
T7 construct: gene PRKACB

MUSK = MUSK (Homo sapiens, UniProt O15146)
[3] = target: T8, ABL1(H396P)-nonphosphorylated (Homo sapiens, UniProt P00519, H396P)
T8 construct: nonphosphorylated

[4] = read-out: Percent control / Tirabrutinib
[5] = read-out: Percent control / Zanubrutinib
[6] = read-out: Percent control / Acalabrutinib
[7] = read-out: Percent control / Ibrutinib

Chain of MAK (P20794 whole entry): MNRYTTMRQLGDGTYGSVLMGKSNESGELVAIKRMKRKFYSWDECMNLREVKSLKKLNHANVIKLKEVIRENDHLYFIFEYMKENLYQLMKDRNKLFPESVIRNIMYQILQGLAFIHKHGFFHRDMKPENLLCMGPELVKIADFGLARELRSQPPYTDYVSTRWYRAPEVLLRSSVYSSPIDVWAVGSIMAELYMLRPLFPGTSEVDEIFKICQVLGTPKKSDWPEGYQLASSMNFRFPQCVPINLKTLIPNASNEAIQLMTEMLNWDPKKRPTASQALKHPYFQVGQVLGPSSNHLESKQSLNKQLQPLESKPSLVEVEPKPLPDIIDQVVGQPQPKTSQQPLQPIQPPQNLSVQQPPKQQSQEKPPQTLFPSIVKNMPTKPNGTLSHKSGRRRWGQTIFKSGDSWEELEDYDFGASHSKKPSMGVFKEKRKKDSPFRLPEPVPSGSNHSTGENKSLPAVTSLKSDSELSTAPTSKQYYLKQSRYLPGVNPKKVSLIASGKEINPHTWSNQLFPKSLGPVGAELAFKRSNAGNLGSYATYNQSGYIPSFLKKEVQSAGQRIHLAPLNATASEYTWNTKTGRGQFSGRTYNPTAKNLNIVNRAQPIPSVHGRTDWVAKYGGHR
Chain of MUSK (O15146 whole entry): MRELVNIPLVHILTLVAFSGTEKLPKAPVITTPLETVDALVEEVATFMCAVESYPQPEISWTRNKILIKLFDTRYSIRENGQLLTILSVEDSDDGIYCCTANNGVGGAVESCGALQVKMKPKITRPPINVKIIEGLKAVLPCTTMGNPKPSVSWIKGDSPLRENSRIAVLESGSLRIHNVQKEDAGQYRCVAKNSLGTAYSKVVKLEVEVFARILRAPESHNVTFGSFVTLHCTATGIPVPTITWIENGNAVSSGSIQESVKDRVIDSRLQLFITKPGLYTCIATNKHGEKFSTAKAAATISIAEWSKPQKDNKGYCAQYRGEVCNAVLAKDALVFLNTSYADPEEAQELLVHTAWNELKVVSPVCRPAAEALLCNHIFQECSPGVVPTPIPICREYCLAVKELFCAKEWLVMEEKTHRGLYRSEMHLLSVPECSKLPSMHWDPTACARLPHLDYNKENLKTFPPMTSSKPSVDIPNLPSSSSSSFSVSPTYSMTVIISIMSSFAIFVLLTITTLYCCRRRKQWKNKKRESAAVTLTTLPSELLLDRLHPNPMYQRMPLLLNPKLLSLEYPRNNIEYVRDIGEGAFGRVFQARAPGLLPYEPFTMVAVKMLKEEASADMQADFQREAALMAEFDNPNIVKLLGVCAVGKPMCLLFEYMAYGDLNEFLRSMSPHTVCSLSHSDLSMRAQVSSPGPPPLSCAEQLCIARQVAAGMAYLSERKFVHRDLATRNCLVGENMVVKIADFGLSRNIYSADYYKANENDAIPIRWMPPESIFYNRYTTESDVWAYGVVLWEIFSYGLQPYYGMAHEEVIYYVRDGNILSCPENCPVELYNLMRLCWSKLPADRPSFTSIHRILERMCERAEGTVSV
Chain of PRKCE (Q02156 whole entry): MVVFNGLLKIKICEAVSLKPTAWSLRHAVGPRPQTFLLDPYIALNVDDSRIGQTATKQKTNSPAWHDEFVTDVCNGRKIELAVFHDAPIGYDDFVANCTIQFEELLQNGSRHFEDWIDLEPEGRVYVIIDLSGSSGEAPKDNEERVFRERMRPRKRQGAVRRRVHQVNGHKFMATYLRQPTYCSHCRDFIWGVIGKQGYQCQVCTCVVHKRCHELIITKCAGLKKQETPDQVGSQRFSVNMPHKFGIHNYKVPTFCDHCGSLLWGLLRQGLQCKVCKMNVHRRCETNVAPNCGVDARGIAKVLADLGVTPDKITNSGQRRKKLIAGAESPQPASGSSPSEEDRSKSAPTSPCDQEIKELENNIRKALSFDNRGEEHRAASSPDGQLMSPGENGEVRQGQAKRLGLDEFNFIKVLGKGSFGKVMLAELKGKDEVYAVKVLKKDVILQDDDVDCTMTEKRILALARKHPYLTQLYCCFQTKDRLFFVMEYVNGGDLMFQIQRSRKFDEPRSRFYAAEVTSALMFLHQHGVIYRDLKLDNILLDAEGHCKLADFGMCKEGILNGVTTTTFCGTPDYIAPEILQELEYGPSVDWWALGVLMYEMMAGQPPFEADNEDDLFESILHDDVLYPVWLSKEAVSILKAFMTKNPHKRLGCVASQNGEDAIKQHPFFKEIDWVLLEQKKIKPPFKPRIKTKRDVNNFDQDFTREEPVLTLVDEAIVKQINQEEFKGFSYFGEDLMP
Chain of CIT (O14578 whole entry): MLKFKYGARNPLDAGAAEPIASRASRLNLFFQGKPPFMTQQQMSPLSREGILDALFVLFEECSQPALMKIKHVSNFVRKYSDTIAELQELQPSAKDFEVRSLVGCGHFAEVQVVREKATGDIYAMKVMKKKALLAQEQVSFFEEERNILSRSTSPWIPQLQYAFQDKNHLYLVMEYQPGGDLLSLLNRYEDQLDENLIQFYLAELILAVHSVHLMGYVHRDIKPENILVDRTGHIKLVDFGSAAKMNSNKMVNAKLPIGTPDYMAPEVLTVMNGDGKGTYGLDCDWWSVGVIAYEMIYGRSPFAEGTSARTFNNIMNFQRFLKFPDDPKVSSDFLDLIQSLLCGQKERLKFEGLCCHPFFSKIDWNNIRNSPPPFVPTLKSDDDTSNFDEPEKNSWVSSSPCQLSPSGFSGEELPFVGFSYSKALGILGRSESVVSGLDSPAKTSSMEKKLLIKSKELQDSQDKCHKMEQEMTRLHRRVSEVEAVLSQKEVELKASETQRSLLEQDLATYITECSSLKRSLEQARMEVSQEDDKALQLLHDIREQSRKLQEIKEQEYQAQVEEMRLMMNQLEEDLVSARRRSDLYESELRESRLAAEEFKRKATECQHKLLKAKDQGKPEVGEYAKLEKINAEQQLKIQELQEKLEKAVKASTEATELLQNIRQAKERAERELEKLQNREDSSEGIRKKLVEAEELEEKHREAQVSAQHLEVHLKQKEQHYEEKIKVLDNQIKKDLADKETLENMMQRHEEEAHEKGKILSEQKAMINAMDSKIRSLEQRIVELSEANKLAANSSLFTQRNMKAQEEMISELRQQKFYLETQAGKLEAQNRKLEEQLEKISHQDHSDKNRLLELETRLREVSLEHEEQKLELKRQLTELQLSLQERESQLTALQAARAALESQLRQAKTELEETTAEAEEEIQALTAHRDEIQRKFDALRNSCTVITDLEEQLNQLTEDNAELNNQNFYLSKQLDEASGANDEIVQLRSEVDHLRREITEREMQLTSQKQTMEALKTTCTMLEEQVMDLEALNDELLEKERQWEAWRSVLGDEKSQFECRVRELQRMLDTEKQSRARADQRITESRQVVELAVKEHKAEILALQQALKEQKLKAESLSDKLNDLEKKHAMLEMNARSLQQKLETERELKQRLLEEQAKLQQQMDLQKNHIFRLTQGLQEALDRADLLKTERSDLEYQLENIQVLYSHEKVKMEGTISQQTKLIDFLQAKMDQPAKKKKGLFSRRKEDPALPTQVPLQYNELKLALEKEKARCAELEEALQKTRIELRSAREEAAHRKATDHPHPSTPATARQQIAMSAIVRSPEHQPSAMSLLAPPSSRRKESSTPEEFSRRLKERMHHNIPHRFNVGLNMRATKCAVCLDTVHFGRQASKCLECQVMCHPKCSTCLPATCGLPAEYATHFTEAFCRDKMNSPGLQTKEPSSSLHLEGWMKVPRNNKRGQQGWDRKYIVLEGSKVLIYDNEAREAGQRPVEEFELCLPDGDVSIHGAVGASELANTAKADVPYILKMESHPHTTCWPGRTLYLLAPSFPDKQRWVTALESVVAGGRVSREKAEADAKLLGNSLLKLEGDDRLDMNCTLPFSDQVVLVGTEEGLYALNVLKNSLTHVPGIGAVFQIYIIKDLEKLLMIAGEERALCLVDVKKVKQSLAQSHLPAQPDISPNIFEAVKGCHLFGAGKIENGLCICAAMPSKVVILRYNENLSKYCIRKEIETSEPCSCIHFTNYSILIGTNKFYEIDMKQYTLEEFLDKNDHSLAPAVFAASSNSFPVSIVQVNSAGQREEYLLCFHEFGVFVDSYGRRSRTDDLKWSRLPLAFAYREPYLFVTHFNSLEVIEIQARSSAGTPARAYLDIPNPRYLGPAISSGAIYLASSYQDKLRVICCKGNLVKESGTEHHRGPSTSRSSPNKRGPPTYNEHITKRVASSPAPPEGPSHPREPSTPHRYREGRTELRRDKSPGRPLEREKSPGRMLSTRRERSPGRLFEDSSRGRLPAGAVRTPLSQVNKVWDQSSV
Chain of SNRK (Q9NRH2 whole entry): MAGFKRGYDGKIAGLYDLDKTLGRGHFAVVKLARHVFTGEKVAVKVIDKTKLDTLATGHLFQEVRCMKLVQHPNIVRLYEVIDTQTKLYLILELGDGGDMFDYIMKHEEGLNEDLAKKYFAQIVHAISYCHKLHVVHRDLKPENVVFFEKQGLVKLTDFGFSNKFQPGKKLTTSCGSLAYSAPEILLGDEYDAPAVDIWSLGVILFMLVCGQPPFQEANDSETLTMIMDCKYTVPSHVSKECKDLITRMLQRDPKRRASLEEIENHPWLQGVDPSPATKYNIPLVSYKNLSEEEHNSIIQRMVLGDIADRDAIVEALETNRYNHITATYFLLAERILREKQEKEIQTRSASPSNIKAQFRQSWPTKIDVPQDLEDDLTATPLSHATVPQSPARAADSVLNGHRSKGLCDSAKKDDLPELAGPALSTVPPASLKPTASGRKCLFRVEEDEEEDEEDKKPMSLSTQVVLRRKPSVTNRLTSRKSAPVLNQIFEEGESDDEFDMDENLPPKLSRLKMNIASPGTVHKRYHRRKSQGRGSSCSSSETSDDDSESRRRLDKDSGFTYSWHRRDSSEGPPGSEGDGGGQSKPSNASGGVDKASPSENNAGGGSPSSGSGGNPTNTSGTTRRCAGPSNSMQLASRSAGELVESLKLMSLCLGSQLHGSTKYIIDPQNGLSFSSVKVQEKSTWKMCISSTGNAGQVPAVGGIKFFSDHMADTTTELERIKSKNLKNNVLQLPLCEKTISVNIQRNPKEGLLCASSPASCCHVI

## CC#CC(=O)N1CC[C@@H](n2c(=O)n(-c3ccc(Oc4ccccc4)cc3)c3c(N)ncnc32)C1 [Tirabrutinib]
HUNK; [4]
  remaining binding at 0.3 µM: 11%
DCAMKL3; [4]
  remaining binding at 0.3 µM: 99%
MAK; [4]
  remaining binding at 0.3 µM: 94%

## C=CC(=O)N1CCC([C@@H]2CCNc3c(C(N)=O)c(-c4ccc(Oc5ccccc5)cc4)nn32)CC1 [Zanubrutinib]
TESK1; [5]
  remaining binding at 0.3 µM: 83%
CDKL1; [5]
  remaining binding at 0.3 µM: 82%
ERK8; [5]
  remaining binding at 0.3 µM: 87%
MYLK; [5]
  remaining binding at 0.3 µM: 82%
CIT; [5]
  remaining binding at 0.3 µM: 100%
CSNK1G1; [5]
  remaining binding at 0.3 µM: 91%
[1]; [5]
  remaining binding at 0.3 µM: 82%
JNK2; [5]
  remaining binding at 0.3 µM: 100%
MAPKAPK2; [5]
  remaining binding at 0.3 µM: 96%
[2]; [5]
  remaining binding at 0.3 µM: 84%
DCAMKL3; [5]
  remaining binding at 0.3 µM: 100%
SNRK; [5]
  remaining binding at 0.3 µM: 90%
MAK; [5]
  remaining binding at 0.3 µM: 100%
PRKCE; [5]
  remaining binding at 0.3 µM: 100%
PKAC-beta; [5]
  remaining binding at 0.3 µM: 82%
MUSK; [5]
  remaining binding at 0.3 µM: 96%

## CC#CC(=O)N1CCC[C@H]1c1nc(-c2ccc(C(=O)Nc3ccccn3)cc2)c2c(N)nccn12 [Acalabrutinib]
TESK1; [6]
  remaining binding at 0.3 µM: 79%
CDKL1; [6]
  remaining binding at 0.3 µM: 93%
ERK8; [6]
  remaining binding at 0.3 µM: 88%
MYLK; [6]
  remaining binding at 0.3 µM: 82%
CIT; [6]
  remaining binding at 0.3 µM: 81%
CSNK1G1; [6]
  remaining binding at 0.3 µM: 90%
[1]; [6]
  remaining binding at 0.3 µM: 97%
JNK2; [6]
  remaining binding at 0.3 µM: 95%
MAPKAPK2; [6]
  remaining binding at 0.3 µM: 72%
SNRK; [6]
  remaining binding at 0.3 µM: 93%
PRKCE; [6]
  remaining binding at 0.3 µM: 96%
[3]; [6]
  remaining binding at 0.3 µM: 85%
MUSK; [6]
  remaining binding at 0.3 µM: 82%

## C=CC(=O)N1CCC[C@@H](n2nc(-c3ccc(Oc4ccccc4)cc3)c3c(N)ncnc32)C1 [Ibrutinib]
HUNK; [7]
  remaining binding at 0.3 µM: 9%
[2]; [7]
  remaining binding at 0.3 µM: 90%
[3]; [7]
  remaining binding at 0.3 µM: 31%
PKAC-beta; [7]
  remaining binding at 0.3 µM: 85%
